From patent publication US20250230165A1, “HETEROCYCLIC COMPOUNDS FOR USE IN THE TREATMENT OF CANCER” (ARTIOS PHARMA LIMITED, priority 2021, published 2025)

Molecular target: T1, Human Polθ polymerase domain (aa1820-2590) (Homo sapiens, UniProt O75417)
T1 construct: Human Polθ polymerase domain (aa1820-2590) was expressed in E. coli; made in house; host or cells: E. coli
T1 sequence (O75417 1820-2590): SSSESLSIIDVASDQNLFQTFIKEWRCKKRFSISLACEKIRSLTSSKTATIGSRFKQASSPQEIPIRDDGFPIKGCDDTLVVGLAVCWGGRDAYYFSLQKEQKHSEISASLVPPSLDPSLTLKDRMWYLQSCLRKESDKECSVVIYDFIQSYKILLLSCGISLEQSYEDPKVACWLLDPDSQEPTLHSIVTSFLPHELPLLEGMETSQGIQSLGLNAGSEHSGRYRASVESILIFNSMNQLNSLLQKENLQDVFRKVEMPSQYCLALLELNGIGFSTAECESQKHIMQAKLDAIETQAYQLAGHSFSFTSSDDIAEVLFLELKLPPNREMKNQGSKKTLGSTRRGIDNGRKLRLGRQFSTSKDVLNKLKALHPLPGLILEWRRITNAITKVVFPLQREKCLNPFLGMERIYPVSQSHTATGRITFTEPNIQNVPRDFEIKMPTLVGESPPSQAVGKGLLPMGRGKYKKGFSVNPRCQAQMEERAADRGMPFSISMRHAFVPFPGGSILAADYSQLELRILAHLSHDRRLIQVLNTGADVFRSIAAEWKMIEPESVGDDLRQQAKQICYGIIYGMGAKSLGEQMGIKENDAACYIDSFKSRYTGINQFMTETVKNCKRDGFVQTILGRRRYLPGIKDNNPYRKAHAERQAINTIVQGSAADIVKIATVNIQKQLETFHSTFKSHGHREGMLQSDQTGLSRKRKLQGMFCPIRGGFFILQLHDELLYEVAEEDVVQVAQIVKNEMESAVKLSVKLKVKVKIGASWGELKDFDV
Experiment: Polθ Polymerase Domain Kinact/KI Assay (PicoGreen)
Format: biochemical
Conditions: 0.8 nM Polθ, 100 nM DNA substrate, kobs vs [I] fit for 2-step covalent inhibitor
How it was run: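 Time-dependent inhibition was followed with 0.8 nM polymerase domain, 100 nM DNA substrate and […], reactions quenched over 60 min and quantified by PicoGreen. Kinact and KI came from a secondary plot of kobs against inhibitor concentration.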

SMILES | Kinact/Kl [M⁻¹ s⁻¹]
C=CC(=O)N1CC(n2cnc(CN3C[C@H]4CC(=O)N(c5cc(C(F)(F)F)cc(C)n5)[C@@H]4C(=O)N(C)c4cccc(C)c43)n2)C1 [Example 139, (3aR,11aS)-5-((1-(1-acryloylazetidin-3-yl)-1H-1,2,4-triazol-3-yl)methyl)-6,10-dimethyl-1-(6-methyl-4-(trifluoromethyl)pyridin-2-yl)-1,3a,4,5,10,11a-hexahydro-2H-benzo[b]pyrrolo[2,3-f][1,4]diazocine-2,11(3H)-dione] | 2.37e+06
Cc1cc(C(F)(F)F)cc(N2C(=O)C[C@@H]3CN(Cc4ccn(C5CN(C(=O)/C=C/CN(C)C)C5)n4)c4c(F)cccc4N(C)C(=O)[C@H]32)n1 [Example 145, (3aR, 11aS)-5-((1-(1-((E)-4-(dimethylamino)but-2-enoyl)azetidin-3-yl)-1H-pyrazol-3-yl)methyl)-6-fluoro-10-methyl-1-(6-methyl-4-(trifluoromethyl)pyridin-2-yl)-1,3a,4,5,10,11a-hexahydro-2H-benzo[b]pyrrolo[2,3-f][1,4]diazocine-2,11(3H)-dione] | 1.34e+06
Cc1cc(C(F)(F)F)cc(N2C(=O)C[C@@H]3CN(Cc4ccc(C5CN(C(=O)/C=C/CN(C)C)C5)cc4)c4c(F)cccc4N(C)C(=O)[C@H]32)n1 [Example 146, (3aR,11aS)-5-(4-(1-((E)-4-(dimethylamino)but-2-enoyl)azetidin-3-yl)benzyl)-6-fluoro-10-methyl-1-(6-methyl-4-(trifluoromethyl)pyridin-2-yl)-1,3a,4,5,10,11a-hexahydro-2H-benzo[b]pyrrolo[2,3-f][1,4]diazocine-2,11(3H)-dione] | 1.68e+06
Cc1cc(C(F)(F)F)cc(N2C(=O)C[C@@H]3CN(Cc4cccc(C5CN(C(=O)/C=C/CN(C)C)C5)c4)c4c(F)cccc4N(C)C(=O)[C@H]32)n1 [Example 147, (3aR,11aS)-5-(3-(1-((E)-4-(dimethylamino)but-2-enoyl)azetidin-3-yl)benzyl)-6-fluoro-10-methyl-1-(6-methyl-4-(trifluoromethyl)pyridin-2-yl)-1,3a,4,5,10,11a-hexahydro-2H-benzo[b]pyrrolo[2,3-f][1,4]diazocine-2,11(3H)-dione] | 610000
Cc1cc(C(F)(F)F)cc(N2C(=O)C[C@@H]3CN(Cc4ccc5c(c4)CN(C(=O)/C=C/CN(C)C)C5)c4c(F)cccc4N(C)C(=O)[C@H]32)n1 [Example 148, (3aR,11aS)-5-((2-((E)-4-(dimethylamino)but-2-enoyl)isoindolin-5-yl)methyl)-6-fluoro-10-methyl-1-(6-methyl-4-(trifluoromethyl)pyridin-2-yl)-1,3a,4,5,10,11a-hexahydro-2H-benzo[b]pyrrolo[2,3-f][1,4]diazocine-2,11(3H)-dione] | 1.65e+06
Cc1cc(C(F)(F)F)cc(N2C(=O)C[C@@H]3CN(Cc4ccc5c(c4)CCN(C(=O)/C=C/CN(C)C)C5)c4c(F)cccc4N(C)C(=O)[C@H]32)n1 [Example 149, (3aR, 11aS)-5-((2-((E)-4-(dimethylamino)but-2-enoyl)-1,2,3,4-tetrahydroisoquinolin-6-yl)methyl)-6-fluoro-10-methyl-1-(6-methyl-4-(trifluoromethyl)pyridin-2-yl)-1,3a,4,5,10,11a-hexahydro-2H-benzo[b]pyrrolo[2,3-f][1,4]diazocine-2,11(3H)-dione] | 1.08e+06
C=C(CN(C)C)C(=O)N1CC(OCCCN2C[C@H]3CC(=O)N(c4cc(C(F)(F)F)cc(C)n4)[C@@H]3C(=O)N(C)c3cccc(F)c32)C1 [Example 150, (3aR, 11aS)-5-(3-((1-(2-((dimethylamino)methyl)acryloyl)azetidin-3-yl)oxy)propyl)-6-fluoro-10-methyl-1-(6-methyl-4-(trifluoromethyl)pyridin-2-yl)-1,3a,4,5,10,11a-hexahydro-2H-benzo[b]pyrrolo[2,3-f][1,4]diazocine-2,11(3H)-dione] | 3.35e+06
C=C(CN(C)C)C(=O)N1CC(c2ccc(CN3C[C@H]4CC(=O)N(c5cc(C(F)(F)F)cc(C)n5)[C@@H]4C(=O)N(C)c4cccc(F)c43)cc2)C1 [Example 151, (3aR, 11aS)-5-(4-(1-(2-((dimethylamino)methyl)acryloyl)azetidin-3-yl)benzyl)-6-fluoro-10-methyl-1-(6-methyl-4-(trifluoromethyl)pyridin-2-yl)-1,3a,4,5,10,11a-hexahydro-2H-benzo[b]pyrrolo[2,3-f][1,4]diazocine-2,11(3H)-dione] | 2.04e+06
C=C(CN(C)C)C(=O)N1CC(c2cccc(CN3C[C@H]4CC(=O)N(c5cc(C(F)(F)F)cc(C)n5)[C@@H]4C(=O)N(C)c4cccc(F)c43)c2)C1 [Example 152, (3aR, 11aS)-5-(3-(1-(2-((dimethylamino)methyl)acryloyl)azetidin-3-yl)benzyl)-6-fluoro-10-methyl-1-(6-methyl-4-(trifluoromethyl)pyridin-2-yl)-1,3a,4,5,10,11a-hexahydro-2H-benzo[b]pyrrolo[2,3-f][1,4]diazocine-2,11(3H)-dione] | 5.05e+06
C=C(CN(C)C)C(=O)N1Cc2ccc(CN3C[C@H]4CC(=O)N(c5cc(C(F)(F)F)cc(C)n5)[C@@H]4C(=O)N(C)c4cccc(F)c43)cc2C1 [Example 153, (3aR, 11aS)-5-((2-(2-((dimethylamino)methyl)acryloyl)isoindolin-5-yl)methyl)-6-fluoro-10-methyl-1-(6-methyl-4-(trifluoromethyl)pyridin-2-yl)-1,3a,4,5,10,11a-hexahydro-2H-benzo[b]pyrrolo[2,3-f][1,4]diazocine-2,11(3H)-dione] | 1.51e+06
C=C(CN(C)C)C(=O)N1CCc2cc(CN3C[C@H]4CC(=O)N(c5cc(C(F)(F)F)cc(C)n5)[C@@H]4C(=O)N(C)c4cccc(F)c43)ccc2C1 [Example 154, (3aR, 11aS)-5-((2-(2-((dimethylamino)methyl)acryloyl)-1,2,3,4-tetrahydroisoquinolin-6-yl)methyl)-6-fluoro-10-methyl-1-(6-methyl-4-(trifluoromethyl)pyridin-2-yl)-1,3a,4,5,10,11a-hexahydro-2H-benzo[b]pyrrolo[2,3-f][1,4]diazocine-2,11(3H)-dione] | 2.3e+06
Cc1cc(C(F)(F)F)cc(N2C(=O)C[C@@H]3CN(CC4CCC(C5CN(C(=O)/C=C/CN(C)C)C5)CC4)c4c(Cl)cccc4N(C)C(=O)[C@H]32)n1 (stereo partly drawn) [Example 155, (3aR, 11aS)-6-chloro-5-((4-(1-((E)-4-(dimethylamino)but-2-enoyl)azetidin-3-yl)cyclohexyl)methyl)-10-methyl-1-(6-methyl-4-(trifluoromethyl)pyridin-2-yl)-1,3a,4,5,10,11a-hexahydro-2H-benzo[b]pyrrolo[2,3-f][1,4]diazocine-2,11(3H)-dione] | 2.51e+06
C=C(CN(C)C)C(=O)N1CC(OCCCN2C[C@H]3CC(=O)N(c4cc(C(F)(F)F)cc(C)n4)[C@@H]3C(=O)N(C)c3cccc(Cl)c32)C1 [Example 156, (3aR,11aS)-6-chloro-5-(3-((1-(2-((dimethylamino)methyl)acryloyl)azetidin-3-yl)oxy)propyl)-10-methyl-1-(6-methyl-4-(trifluoromethyl)pyridin-2-yl)-1,3a,4,5,10,11a-hexahydro-2H-benzo[b]pyrrolo[2,3- ][1,4]diazocine-2,11(3H)-dione] | 3.95e+06
C=C(CN(C)C)C(=O)N1CCC(OCCN2C[C@H]3CC(=O)N(c4cc(C(F)(F)F)cc(C)n4)[C@@H]3C(=O)N(C)c3cccc(Cl)c32)CC1 [Example 157, (3aR,11aS)-6-chloro-5-(2-((1-(2-((dimethylamino)methyl)acryloyl)piperidin-4-yl)oxy)ethyl)-10-methyl-1-(6-methyl-4-(trifluoromethyl)pyridin-2-yl)-1,3a,4,5,10,11a-hexahydro-2H-benzo[b]pyrrolo[2,3-f][1,4]diazocine-2,11(3H)-dione] | 1.57e+06
C=C(CN(C)C)C(=O)N1CCC(CCCN2C[C@H]3CC(=O)N(c4cc(C(F)(F)F)cc(C)n4)[C@@H]3C(=O)N(C)c3cccc(Cl)c32)CC1 [Example 158, (3aR,11aS)-6-chloro-5-(3-(1-(2-((dimethylamino)methyl)acryloyl)piperidin-4-yl)propyl)-10-methyl-1-(6-methyl-4-(trifluoromethyl)pyridin-2-yl)-1,3a,4,5,10,11a-hexahydro-2H-benzo[b]pyrrolo[2,3-f][1,4]diazocine-2,11(3H)-dione] | 3.72e+06
C=C(CN(C)C)C(=O)N1CCn2cc(CN3C[C@H]4CC(=O)N(c5cc(C(F)(F)F)cc(C)n5)[C@@H]4C(=O)N(C)c4cccc(Cl)c43)nc2C1 [Example 159] | 3.07e+06
